Source: ChEMBL document CHEMBL5724796, “Tm Shift (DSF) assay results for EUbOPEN Chemogenomics Library” (2024)
Values joined by “and” are separate entries in the source; they are usually repeats but may differ in a detail not shown here. Equal values may be shown once. Residues, ends and D or L forms follow the SMILES beside them.

How the values were obtained:
[1] = biological target: Fibroblast growth factor receptor 2 (Homo sapiens) (UniProt P21802); details: Compound concentration 20.0 uM
Peregrin (Homo sapiens) = biological target: T1, Peregrin (Homo sapiens) (UniProt P55201); details: Compound concentration 20.0 uM
T1 sequence (whole entry): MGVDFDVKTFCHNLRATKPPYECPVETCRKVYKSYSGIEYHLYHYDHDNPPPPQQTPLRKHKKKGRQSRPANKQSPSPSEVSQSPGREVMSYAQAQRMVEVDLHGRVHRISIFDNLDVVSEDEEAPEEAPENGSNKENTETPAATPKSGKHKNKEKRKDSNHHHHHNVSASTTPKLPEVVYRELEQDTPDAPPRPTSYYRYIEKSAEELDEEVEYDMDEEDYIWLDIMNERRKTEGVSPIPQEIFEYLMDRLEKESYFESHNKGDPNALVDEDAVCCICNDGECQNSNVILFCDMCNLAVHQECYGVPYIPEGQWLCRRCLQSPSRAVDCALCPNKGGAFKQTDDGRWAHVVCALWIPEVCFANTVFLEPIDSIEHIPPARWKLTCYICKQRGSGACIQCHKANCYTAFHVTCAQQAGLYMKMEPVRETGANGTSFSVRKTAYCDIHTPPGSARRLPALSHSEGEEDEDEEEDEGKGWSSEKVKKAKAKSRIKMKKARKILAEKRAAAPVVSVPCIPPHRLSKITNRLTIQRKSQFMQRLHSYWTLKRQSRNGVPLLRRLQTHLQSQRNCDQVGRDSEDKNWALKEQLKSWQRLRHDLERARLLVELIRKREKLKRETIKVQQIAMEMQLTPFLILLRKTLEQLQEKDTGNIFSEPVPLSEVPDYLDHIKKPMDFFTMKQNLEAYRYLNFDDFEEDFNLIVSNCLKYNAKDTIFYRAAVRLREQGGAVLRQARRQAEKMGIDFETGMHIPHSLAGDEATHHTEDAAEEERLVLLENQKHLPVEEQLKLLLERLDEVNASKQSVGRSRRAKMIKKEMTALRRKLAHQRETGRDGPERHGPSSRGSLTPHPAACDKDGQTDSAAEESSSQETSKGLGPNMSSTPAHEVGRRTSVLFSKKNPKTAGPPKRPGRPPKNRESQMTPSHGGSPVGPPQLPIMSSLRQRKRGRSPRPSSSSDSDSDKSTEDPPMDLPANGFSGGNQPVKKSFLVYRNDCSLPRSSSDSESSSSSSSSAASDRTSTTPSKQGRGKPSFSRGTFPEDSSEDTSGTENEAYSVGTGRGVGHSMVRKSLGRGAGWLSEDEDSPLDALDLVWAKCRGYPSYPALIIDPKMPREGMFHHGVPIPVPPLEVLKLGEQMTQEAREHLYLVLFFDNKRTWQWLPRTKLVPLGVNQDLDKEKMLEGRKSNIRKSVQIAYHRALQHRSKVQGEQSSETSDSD

Sequence of Fibroblast growth factor receptor 2 (Homo sapiens) (P21802 22-821 limits assumed): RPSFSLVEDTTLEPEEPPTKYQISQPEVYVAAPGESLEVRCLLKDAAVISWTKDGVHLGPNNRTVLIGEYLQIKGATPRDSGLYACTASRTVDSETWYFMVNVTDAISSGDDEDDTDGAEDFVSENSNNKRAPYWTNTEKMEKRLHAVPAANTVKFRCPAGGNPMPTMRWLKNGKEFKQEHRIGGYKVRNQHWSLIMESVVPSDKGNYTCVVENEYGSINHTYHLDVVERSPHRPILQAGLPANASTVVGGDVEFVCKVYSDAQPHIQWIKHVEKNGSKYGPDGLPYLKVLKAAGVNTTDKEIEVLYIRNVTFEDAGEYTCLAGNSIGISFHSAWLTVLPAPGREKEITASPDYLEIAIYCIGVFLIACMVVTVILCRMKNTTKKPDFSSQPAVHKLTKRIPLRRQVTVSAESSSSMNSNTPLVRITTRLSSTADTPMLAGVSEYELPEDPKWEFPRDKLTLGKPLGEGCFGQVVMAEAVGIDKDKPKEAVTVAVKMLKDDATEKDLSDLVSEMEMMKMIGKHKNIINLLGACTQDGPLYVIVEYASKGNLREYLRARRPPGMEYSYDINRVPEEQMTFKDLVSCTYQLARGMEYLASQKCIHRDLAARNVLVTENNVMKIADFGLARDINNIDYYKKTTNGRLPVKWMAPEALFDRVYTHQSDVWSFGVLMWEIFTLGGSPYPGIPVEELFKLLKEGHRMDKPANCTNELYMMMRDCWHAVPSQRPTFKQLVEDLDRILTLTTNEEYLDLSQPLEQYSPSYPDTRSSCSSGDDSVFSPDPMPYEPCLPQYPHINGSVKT

SMILES | ΔTm [1] | ΔTm (Peregrin (Homo sapiens))
O=C(O)Cn1nnc(-c2ccc(CN(CCCCOc3ccc(CN4CCCC4)cc3)CCc3ccccc3)cc2)n1 | -2.96 °C | -2.23 °C
CSc1cccc(Nc2ncc3cc(-c4c(Cl)cccc4Cl)c(=O)n(C)c3n2)c1 | -0.92 °C | -0.8 °C
Cc1cc(/N=N/c2ccc3c(c2)CCC(=O)N3)c(N)cc1O | 0.16 °C | 1.01 °C
N=C(N)NC(=O)c1cnn(-c2cccc3ncccc23)c1C1CC1 | -0.51 °C | -0.17 °C
CCCNC(=O)[C@H]1O[C@@H]1C(=O)N[C@H](C(=O)N1CCC[C@H]1C(=O)O)[C@@H](C)CC | 0.07 °C | -2.2 °C
Nc1cc(F)ccc1NC(=O)c1ccc(CNC(=O)/C=C/c2cccnc2)cc1 | 0.58 °C | -0.89 °C
O=C(O)C1CCCN(CCC=C(c2ccccc2)c2ccccc2)C1 (configuration not stated) | 0.41 °C | 0.59 °C
O=C(CNC(=O)[C@H](COP(=O)(O)O)NC(=O)CCc1c[nH]c2ccccc12)NCCCCc1ccccc1 | 0.74 °C | 2.14 °C
COc1cc(C)[nH]c(=O)c1CNC(=O)c1c(C)n([C@H](C)C2CCN(CC(F)(F)F)CC2)c2ccccc12 | 0.91 °C | -1.59 °C
NC(=O)C1CCCc2c1[nH]c1ccc(Cl)cc21 (configuration not stated) | 0.23 °C | 2.61 °C
CC(=O)O[C@]1(C(C)=O)CC[C@H]2[C@@H]3CCC4=CC(=O)CCC4=C3[C@@H](c3ccc(N(C)C)cc3)C[C@@]21C | -0.06 °C | -2.65 °C
CCC(CC)N(CCN(C)C(=O)CCC(=O)O)Cc1cccc(C(=O)Nc2sc3c(c2C(=O)c2cnn(-c4ccc(Cl)c(C(F)(F)F)c4)c2)CCC(C)(C)C3)c1 | -2.12 °C | -1.97 °C
Cc1cc(C)cc(Oc2ccc(CNC(=O)[C@H](C)N)cc2C)c1 | 0.01 °C | -1.68 °C
CCC(NC(=O)C(CC(C)C)NC(=O)OCc1ccccc1)C(=O)C(=O)NCCCN1CCOCC1 (configuration not stated) | 1.24 °C | -1.22 °C
C[C@@H](Oc1ccc(S(C)(=O)=O)cc1C(=O)N1C[C@@H]2C[C@]2(c2cc(C(F)(F)F)on2)C1)C(F)(F)F | -0.81 °C | 0.16 °C
CC(c1cccc2ccccc12)n1cnc2c(=O)[nH]c(Cc3ccccc3)nc21 (configuration not stated) | -1.64 °C | -0.65 °C
O=C(NO)c1ccc(CN(c2cnccn2)c2cnccn2)cc1 | -0.14 °C | -0.86 °C
O=C(c1cccc(-c2ccc(-c3cn(C(=O)N4CCCCC4c4ccccc4)nn3)cc2)c1)N1CCCCC1 (configuration not stated) | 2.55 °C | 3.63 °C
COc1ccc(N(C(=O)Oc2c(C)cccc2C)c2ccnc(Nc3ccc(N4CCN(C)CC4)cc3)n2)c(OC)c1 | 4.44 °C | -1.1 °C
O=C(NCc1ccc(F)cc1)C1CCN(S(=O)(=O)c2cc(Cl)cc(Cl)c2)CC1 | 0.75 °C | 2.64 °C
C[C@@H](Nc1nc2c(cnn2C2CCCC2)c(=O)[nH]1)C(=O)N1CC[C@H](F)C1 | -0.04 °C | -0.37 °C

SMILES | ΔTm [1] | ΔTm (Peregrin (Homo sapiens))
COc1cccc(OC)c1S(=O)(=O)Nc1noc2cc(Cn3cccn3)cc(OC)c12 | -3.46 °C | -0.57 °C
COc1ccc(/C=C/C(=O)NO)c(-c2ccc(-c3ccccc3)cc2)c1 | -5.03 °C | -5.43 °C
CN1CCN2c3c(cccc31)[C@@H]1CN(CCCC(=O)c3ccc(F)cc3)CC[C@@H]12 | -0.37 °C | -0.19 °C
O=c1[nH]ccc2cc(F)c(NS(=O)(=O)c3ccc(N4CC[C@@H](O)C4)s3)cc12 | 0.54 °C | -1.14 °C
O=C(C=Cc1ccc(O)cc1)c1ccc(O)cc1O | 1.26 °C | 0.82 °C
COc1cc(Oc2ccnc3cc(OC)c(OC)cc23)ccc1NC(=O)NC(C)c1nccs1 (configuration not stated) | -3.29 °C | -1.23 °C
Nc1c[nH]c(=O)c2cc(-c3ccccc3)sc12 | 0.44 °C | -1.11 °C
Cc1cc(OCCCNCCC(N)=O)ccc1Cc1c(O[C@@H]2O[C@H](CO)[C@@H](O)[C@H](O)[C@H]2O)n[nH]c1C(C)C | 0.45 °C | 1.37 °C
COc1nc(N)nc(Nc2cc(S(N)(=O)=O)ccc2N[C@@H](c2cccc3c2OC(F)(F)O3)c2ncccc2Cl)n1 | 1.9 °C | -3.63 °C
O=c1[nH][nH]c(=O)c2cc(OCC3CCCCC3)ccc12 | 1.11 °C | 2.63 °C
O=C(O)CCNc1cc(N2CCc3ccccc3CC2)nc(-c2cccnc2)n1 | 0.9 °C | -1.01 °C
Fc1ccc(CNc2ncnc3ccc(F)cc23)cc1 | -0.12 °C | 1.26 °C
COc1ccc(C(=O)N[C@H](C(=O)N2CCC[C@H]2C(=O)N[C@H](C(=O)C(F)(F)F)C(C)C)C(C)C)cc1 | 0.07 °C | 0.8 °C
CNC(=O)Cn1cc(-c2ccc3c(c2)[C@H](F)C[C@]32NC(=O)N(CC(=O)N(Cc3ccc(F)cc3)[C@@H](C)C(F)(F)F)C2=O)cn1 | -0.18 °C | -0.07 °C
Nc1cccc(CNC(=O)c2ccc(Oc3ccc(OCc4cccc(F)c4)cc3)nc2)c1 | -0.6 °C | 2.81 °C
CCN(CCN(C)C)C(=O)CNCc1cc(C(N)=O)ccn1 | 0.97 °C | -1.31 °C
Cc1cnc(-c2ccccc2C(C)C)nc1NCc1ccc(-n2ccnn2)cc1 | -0.47 °C | -1.14 °C
CNCCC(Oc1ccccc1OC)c1ccccc1 (configuration not stated) | 0.13 °C | 1.17 °C
Cc1[nH]nc(C(F)(F)F)c1Cc1sc2c(c1C(=O)N1C[C@](C)(O)CO1)c(=O)n(C)c(=O)n2C(C)C | 1.06 °C | 0.94 °C
NC(=O)c1cccc(NC(=O)CCC(=O)NCCc2cn(CCNS(=O)(=O)c3cccc(C(=O)O)c3)nn2)c1 | -1.91 °C | -1.38 °C
Cc1cc(N2C[C@@H](C)N[C@@H](C)C2)ncc1-c1ccc(-c2nc3c(ccn3C)c(=O)[nH]2)cc1 | 0.8 °C | 2.61 °C

SMILES | ΔTm [1] | ΔTm (Peregrin (Homo sapiens))
N=C(N)SCc1ccc(CN2C(=O)C(=O)c3cc(C(F)(F)F)ccc32)cc1 | 0.77 °C | 0.27 °C
CCN(C(=O)c1cc(F)ccc1Oc1cncnc1N1CC2(CCN(C[C@H]3CC[C@H](NS(=O)(=O)CC)CC3)CC2)C1)C(C)C | 0.21 °C | 0.45 °C
CCCSc1nc2c(c(=O)n1-c1ccccc1)SCC2 | 0.36 °C | 0.27 °C
COC(=O)C[C@@H]1N=C(c2ccc(Cl)cc2)c2c(sc(C)c2C)-n2c(C)nnc21 | 0.53 °C | -0.95 °C
CC(C)(O)c1ccc(N2Cc3c(ccnc3-c3ccc(F)cc3OCC(F)(F)F)C2=O)cc1 | -4.87 °C | -1.27 °C
C[C@H](NC(=O)c1cn(C2(C#N)CC2)cn1)C(=O)Nc1nc(-c2cccc(-c3ccn(C)n3)c2)cs1 | 0.8 °C | -0.85 °C
CSCC[C@H](NC(=O)[C@H](CC(=O)O)NC(C)=O)C(=O)N[C@@H](CCC(N)=O)C(=O)N[C@H](C=O)CC(=O)O (Ac-DMQD-aldehyde) | 0.77 °C | -1.78 °C
C[C@@H]1CN(c2nccc(Nc3ccc4c(c3)n(CCC(C)(C)O)c(=O)n4C)n2)C[C@H](C)C1(F)F | -0.7 °C | -0.49 °C
O=C(Nc1ccccc1C(=O)O)c1cc(S(=O)(=O)c2ccccc2)ccc1Cl | -0.48 °C | 0.95 °C
CCC[C@@H]1CNCc2c1[nH]c(=O)c(C#N)c2N1CCC2(CC1)CC2 | 0.64 °C | -1.25 °C
CC[C@H](C)[C@H](NC(C)=O)C(=O)N[C@@H](CCC(=O)O)C(=O)N[C@H](C(=O)N[C@H](C=O)CC(=O)O)[C@@H](C)O (Ac-IETD-aldehyde) | 0.37 °C | -0.66 °C
Cc1ccnc(NS(=O)(=O)c2ccc(NC(=O)Nc3ccc(S(=O)(=O)Nc4nccc(C)n4)cc3)cc2)n1 | -0.47 °C | 0.27 °C
O=C(C1CC1)N1CC[C@@H](Cc2n[nH]c(=O)n2-c2ccc(-c3ccc4occc4c3)cc2)C1 | 0.63 °C and -0.68 °C | -1.32 °C and 0.92 °C
N#Cc1cccnc1N1CCN(C(=O)c2cccc(Cc3n[nH]c(=O)c4ccccc34)c2)CC1 | -0.1 °C | 1.88 °C
O=c1[nH][nH]c(=O)c2cc(OCc3ccccc3F)ccc12 | 0.22 °C | 2.62 °C
N[C@@H](CCCCNC(=O)OCc1ccc([N+](=O)[O-])cc1)C(=O)N1CCCC1 | -0.09 °C | 0.82 °C
Cc1cc(OCCCNCC(C)(C)C(N)=O)ccc1Cc1c(O[C@@H]2O[C@H](CO)[C@@H](O)[C@H](O)[C@H]2O)n[nH]c1C(C)C | -0.15 °C | 1.07 °C
COc1ccc(-c2c(-c3ccc(C#N)c(F)c3)nc(N3CCC(N)CC3)n(C)c2=O)cc1F | 0.16 °C | 1.09 °C
CCS(=O)(=O)Cc1cnc(Oc2ccc(F)cc2F)c(-c2cc(C)c3c(=O)[nH]ccn23)c1 | 0.35 °C | 2.87 °C
